The text below walks through data of patent US7115590B1 (University College Cardiff Consultants Limited, priority 1999, dated 2006).

Like-named read-outs stand apart in the source and are kept apart here.

One data set has as its system Hepatitis B Virus. As to the kind of experiment: Anti-Hepatitis B Virus activity. It counts as cell-based. The method, then:
Compounds were tested for anti-Hepatitis B Virus activity according to the method described by Jansen, R. et al., Antimicrobial Agents and Chemotherapy, Vol. 37, No. 3, pp. 441–447, 1993, and results are shown in the table below.

Data set [1] can be described thus: Acid stability, acid-mediated hydrolytic decomposition simulating stomach conditions (HPLC). It counts as physicochemical. The conditions noted are these: dilute hydrochloric acid pH 1, 37° C., initial 0.3 mg/ml. The method, then:
Compounds according to the invention were tested for their stability towards acid-mediated hydrolytic decomposition employing a test designed to simulate stomach conditions. Each compound was incubated at an initial concentration of 0.3 mg/ml in dilute hydrochloric acid at pH 1 at 37° C. HPLC was run immediately for t=0 and at intervals up to approximately 24 hours.

Data set [2] is classed as in vitro ADME. The conditions noted are these: normal heparized human plasma, 37° C. Here is the method:
Each compound was incubated in normal heparized human plasma at 37° C. At selected time points duplicate samples were removed and deproteinated by acetonitrile extraction. Drug concentrations were then determined by LC/MS/MS analysis using standard methods.

One may read the melting point as the temperature of the solid-liquid transition. The IC50 is the concentration at which inhibition is half-maximal.

For `Nc1ncnc2c1ncn2[C@@H]1C=C[C@H](CO)C1` (relative stereo) [Example 1, (1R,cis)-4-(6-Amino-9H-purin-9-yl)-2-cyclopentene-1-methanol], the melting point was 195 to 200 °C. Also, in the data set on Hepatitis B Virus (Hepatitis B virus; read-out: IC50 (mM) vs. HBV), the IC50 worked out at 0.98 µM. Besides, in the data set on Hepatitis B Virus (vs. HBV), the “Selectivity Index” value is recorded as >200.
Regarding `CCOC(=O)[C@H](Cc1ccccc1)NP(=O)(OC[C@H]1C=C[C@@H](n2cnc3c(N)ncnc32)C1)Oc1ccccc1` (relative stereo) [Example 7], the “half-life, acid stability” value in data set [1] was 76 h. The “Half-life” value in data set [2] stood at 53 h. Moreover, the “Selectivity Index” value in the data set on Hepatitis B Virus (vs. HBV) is recorded as 5000.
As for `Nc1ncnc2c1ncn2[C@@H]1C=C[C@H](COP(=O)([O-])N[C@@H](Cc2ccccc2)C(=O)[O-])C1.[Na+].[Na+]` (relative stereo) [Example 8], the “Selectivity Index” value in the data set with Hepatitis B Virus (vs. HBV) is >1800.
As for `COC(=O)C(C)(C)NP(=O)(OC[C@H]1C=C[C@@H](n2cnc3c(N)ncnc32)C1)Oc1ccccc1` (stereo partly drawn) [Example 9], the IC50 in the data set on Hepatitis B Virus (Hepatitis B virus, read-out: IC50 (mM) vs. HBV) worked out at 0.002 µM. Also, the “Selectivity Index” value with Hepatitis B Virus (vs. HBV) stood at 5000.
